{"source": "patent US5240714A", "about": "“Non-digoxin-like Na^+, K^+ -ATPase inhibitory factor” (priority 1989, dated 1993)", "test_system": "anti-digoxin antibody", "assay": "digoxin radioimmunoassay (cross-reactivity with anti-digoxin antibody)", "format": "binding", "details": "at the doses tested", "method": "Radioimmunoassay. Generally, a digoxin antibody covalently bound to the inner surface of polypropylene tubes was used, obtained from Immunochem (USA). Digoxin standards and samples were diluted 1:2 in 1.5M Tris-ClH, pH 7.5. ^125 I-digoxin (2000 μCi/μg) was used.\nAs stated previously, this cross reaction is not a necessary criteria for HHIF. However, this method is used to follow and evaluate digoxin-like substances in the exemplary purification procedures. An RIA commercial kit was used, purchased from Immunochem. Digoxin standards and sample preparations were diluted 1:2 in 1.5M Tris-ClH, pH 7.5. Digoxin antibodies were covalently bound to the inner surface of polypropylene tubes. After a 30 min. incubation at 20° C., tubes with sample plus I^125 -digoxin unbound radioactivity are discarded and the tubes counted by […]. Values of DLA are calculated by extrapolating from the standard curve constructed on semilogarithmic paper with plots of B/B. vs. concentration.\nA radioimmunoassay method based on charcoal separation using a commercial antibody elicited in rabbit against digoxin is also used as described by Smith, T. W., et al. \"Determination Of Therapeutic And Toxic Serum Digoxin Concentrations By Radioimmunoassay.\" The New England J Med. 1969;1212-1216.", "data": [{"smiles": "C[C@@H]1O[C@@H](O[C@H]2C[C@@H](O)[C@]3(CO)[C@H]4[C@H](O)C[C@]5(C)[C@@H](C6=CC(=O)OC6)CC[C@]5(O)[C@@H]4CC[C@]3(O)C2)[C@H](O)[C@H](O)[C@H]1O", "note": "[ouabain]", "values": [{"measurement": "cross-reactivity with anti-digoxin antibody (digoxin immunoreactivity)", "result": "weakly cross-reacted"}]}]}
